Converted amounts (≈) assume the structure as drawn. Peptide text beside a SMILES is read from it. * marks the point of attachment. Orn(α-tetramethylguanidino) = CN(C)C(=N[C@@H](CCCN)C(=O)*)N(C)C
Tests used:
[1] = system: E. coli Rosetta DE3 pLysS; assay: MIC, liquid broth microdilution; format: cell-based, Escherichia coli; details: 25% MHBII medium, 7.5 × 10^6 CFU/mL, 37 °C, 20 ± 2 h, turbidity 600 nm, at least twice in triplicate
Method: (§1) The minimal inhibitory concentrations (MIC) were determined at least twice in triplicate using a liquid broth microdilution assay in sterile 96-well plates and a total volume of 100 μL per well. Aqueous peptide solutions were serially 2-fold diluted in 25% MHBII or 33% TSB medium in a volume of 50 µL. An overnight culture was diluted in 25% MHBII or 33% TSB medium to 1.5 × 10^7 CFU/mL, and an aliquot of 50 μL was added to each well. The final cell count in each well was 7.5 × 10^6 CFU/mL. The plates were incubated at 37 °C for 20 ± 2 h. The turbidity of each well was measured at a wavelength of 600 nm. The MIC was defined as the lowest peptide concentration where the turbidity was identical to medium only.

[2] = system: 70S ribosome extract of E. coli BW25113; assay: Fluorescence polarization, Kd of cf-labeled peptides; format: binding, Escherichia coli; details: determined for the cf-labeled peptide; BW25113 ribosome extract; 28 °C, 90 min; 95% confidence interval in brackets; triplicate on at least two days; read-out: Kd, BW
Method: (§2) E. coli BW25113 and E. coli Rosetta pLysS were cultivated in LB medium and harvested at an OD600 of ~4 by centrifugation (5000× g, 30 min, 4 °C). The cell pellets were washed by resuspension in ribosome preparation buffer (20 mmol/L Hepes-KOH, 6 mmol/L MgCl2, 30 mmol/L NH4Cl, pH 7.6, 4°C) and subsequent centrifugation (5000× g, 30 min, 4 °C). Cell pellets were suspended in ribosome preparation buffer ([…]) containing freshly added 2-mercapotethanol (4 mmol/L). Lysozyme was added to the resuspended cells and incubated on ice for 30 min. The cell suspension was disrupted six times using a FastPrep-24^TM 5G instrument (MP Biomedicals, Solon, OH, USA) with BigPrep 50 mL setting (40 s, 4.0 m/s), incubated with DNase I (5 mL/L) on ice for one hour and centrifuged (16,000× g, 30 min, 4 °C). The cell debris was removed from the supernatant by centrifugation (32,000× g, 60 min, 4 °C), and the supernatant was centrifuged again (165,000× g, 17 h, 4 °C). The pellet was resuspended in ribosome preparation buffer (0.1 mL per g cell pellet) to obtain the 70S ribosome extract and stored at −80 °C. The ribosome concentration was estimated by recording the absorbance at 260 nm (1 AU for a ribosome concentration of 28 nmol/L). The molecular weight of the 70S E. coli ribosome was assumed to be 2.3 MDa.
(§3) Kd was determined using a ribosome extract and cf-labeled peptides in ribosome preparation buffer. Briefly, black 384-well plates (flat bottom, Greiner Bio-One GmbH) were blocked with casein (0.5%, w/v) in phosphate buffer containing 0.05% (v/v) Tween 20 at 4 °C overnight and washed three times with phosphate buffer. A 2-fold dilution series of the ribosome extract (20 μL per well) in ribosome preparation buffer was prepared in a black 384-well plate (23 dilution steps). The cf-labeled peptide was dissolved in ribosome preparation buffer (20 μL, 40 nmol/L), added to each well, and incubated at 28 ± 1 °C. After 90 min, the fluorescence polarization was measured on a PARADIGMTM microplate reader (Beckman Coulter, Salzburg, Austria) in the top read position (λexc = 485 nm, λem = 535 nm) in triplicate on at least two different days. Data were fitted to a nonlinear, dose–response logistical transition equation [y= y0 + a/(1 + (x/x0)b)] using the Levenberg–Marquardt algorithm, with dissociation constants (Kd) represented by the x0 coefficients (GraphPad Prism for Windows v. 5.02, San Diego, CA, USA).

[3] = system: E. coli Rosetta; assay: Uptake of cf-labeled PrAMPs; format: cell-based, Escherichia coli
Method: Bacteria were grown in 25% MHBII medium overnight, diluted fourfold with fresh medium, and incubated to obtain an OD600 of ~1. The cultures were adjusted to an OD600 of 1, and cf-labeled peptide was added to achieve a final concentration of 23 µmol/L (~64 µg/mL). After 0 min, 90 min, and 180 min, two aliquots (300 µL) of the culture were transferred to two tubes. One tube was immediately stored on ice in the dark. The second sample was centrifuged (10,000× g, 4 °C, 3 min), and the supernatant was transferred to a fresh tube and stored on ice in the dark. The pellet was washed with ice cold PBS (300 µL) and centrifuged (10,000× g, 4 °C, 3 min), and the supernatant was transferred into a fresh tube. Both the supernatant and the pellet resuspended in 300 µL ice cold PBS were stored on ice in the dark. After 180 min, an aliquot of the unprocessed sample (100 µL) was transferred to a translucent 96-well plate, and the absorbance was measured at 600 nm. Aliquots (100 µL) of the original cell culture, supernatants, wash solutions, and resuspended pellets were transferred into black 96-well plates to measure the fluorescence in a PARADIGM^TM microplate reader in the top read position (λexc = 485 nm, λem = 535 nm). Experiments were performed three times on different days. The relative fluorescence units were normalized to the measured OD600 values of the cell culture.

[4] = system: E. coli BW25113; format: cell-based, Escherichia coli; details: for MIC, BW: BW25113, 2 h
Method: as §1, with “The plates were incubated at 37 °C for 20 ± 2 h.” left out

[5] = system: 70S ribosome extract of E. coli Rosetta DE3 pLysS; assay: Fluorescence polarization, Kd of cf-labeled peptides; format: binding, Escherichia coli; details: determined for the cf-labeled peptide, 28 °C, 90 min, 95% confidence interval in brackets, triplicate on at least two days, read-out: Kd, Ros
Method: as §2, §3

[6] = system: E. coli BL21 (DE3); format: cell-based, Escherichia coli; details: BL21, 2 h
Method: as §1, with “The plates were incubated at 37 °C for 20 ± 2 h.” left out

[7] = system: E. coli BW25113 ΔsbmA +psbmA_A31G/G219T; format: cell-based, Escherichia coli
Method: as §1

[8] = cf-labeled peptides 23 µmol/L, normalized fluorescence after 180 min

Q: With `CC[C@H](C)[C@H](NC(=O)[C@H](Cc1ccc(O)cc1)NC(=O)[C@@H](NC(=O)[C@@H]1CCCN1C(=O)[C@H](CCCNC(=N)N)NC(=O)[C@H](CC(N)=O)NC(=O)[C@H](CC(N)=O)NC(=O)[C@H](CCCN)N=C(N(C)C)N(C)C)C(C)C)C(=O)N1CCC[C@H]1C(=O)N[C@@H](CCCNC(=N)N)C(=O)N1CCC[C@H]1C(=O)N[C@@H](CCCNC(=N)N)C(=O)N1CCC[C@H]1C(=O)N1CCC[C@H]1C(=O)N[C@@H](Cc1c[nH]cn1)C(=O)N1CCC[C@H]1C(=O)N[C@@H](CCCNC(=N)N)C(=O)N[C@@H](CC(C)C)C(N)=O` [Api88] ({Orn(α-tetramethylguanidino)}-NNRPVYIPRPRPPHPRL-NH2) as the compound, how does the “MIC, Ros” value [1] read?
A: Its value is 1 µg/mL (≈ 0.437 µM).

Q: And the Kd [2]?
A: Its Kd is 906 nM.

Q: What about the “uptake in E. coli Rosetta compared with Api137” value [3, 8] of the same compound?
A: Its value is “two- to threefold higher”.

Q: What about the “MIC, BW” value [4] of the same compound?
A: Its value is 2 µg/mL (≈ 0.873 µM).

Q: And the “less active against BW25113 than against Rosetta DE3 pLysS (fold, from MIC)” value ([4]; ratio of MIC values, 25% MHBII)?
A: The value was “twofold”.

Q: `CC[C@H](C)[C@H](NC(=O)[C@H](Cc1ccc(O)cc1)NC(=O)[C@@H](NC(=O)[C@@H]1CCCN1C(=O)[C@H](CCCNC(=N)N)NC(=O)[C@H](CC(N)=O)NC(=O)[C@H](CC(N)=O)NC(=O)[C@H](CCCN)N=C(N(C)C)N(C)C)C(C)C)C(=O)N1CCC[C@H]1C(=O)N[C@@H](CCCNC(=N)N)C(=O)N1CCC[C@H]1C(=O)N[C@@H](CCCNC(=N)N)C(=O)N1CCC[C@H]1C(=O)N1CCC[C@H]1C(=O)N[C@@H](Cc1c[nH]cn1)C(=O)N1CCC[C@H]1C(=O)N[C@@H](CCCNC(=N)N)C(=O)N[C@@H](CC(C)C)C(=O)O` [Api137] ({Orn(α-tetramethylguanidino)}-NNRPVYIPRPRPPHPRL-OH) was tested. Which “MIC, Ros” value [1] did it give?
A: Its value is 2 µg/mL (≈ 0.873 µM).

Q: What about the Kd [2] of the same compound?
A: Its Kd is 382 nM.

Q: And the Kd [5]?
A: The Kd was 198 nM.

Q: And the “normalized uptake of E. coli Rosetta, in words” value ([3]; cf-labeled peptides 23 µmol/L, 0, 90, 180 min)?
A: The value was “lowest uptake”.

Q: What about the “MIC, 25% MHBII” value [6] of the same compound?
A: Its value is 4 µg/mL (≈ 1.75 µM).

Q: What about the “MIC, 33% TSB” value [6] of the same compound?
A: The value was 2 µg/mL (≈ 0.873 µM).

Q: And the “MIC, BW” value [4]?
A: Its value is 2 µg/mL (≈ 0.873 µM).

Q: And the “MIC, 25% MHBII” value ([7]; BW25113 ΔsbmA +psbmA_A31G/G219T, 25% MHBII containing IPTG (0.1 mmol/L))?
A: Its value is 2 µg/mL (≈ 0.873 µM).

Q: What about the “MIC, 33% TSB” value ([7]; BW25113 ΔsbmA +psbmA_A31G/G219T, 33% TSB containing IPTG (0.1 mmol/L)) of the same compound?
A: Its value is 8 µg/mL (≈ 3.49 µM).

Q: For `CC[C@H](C)[C@H](NC(=O)[C@@H]1CCCN1C(=O)[C@H](CCCNC(=N)N)NC(=O)[C@H](CC(N)=O)NC(=O)[C@H](CC(N)=O)NC(=O)CN)C(=O)N[C@@H](Cc1ccc(O)cc1)C(=O)N[C@H](C(=O)N1CCC[C@H]1C(=O)N[C@@H](CCCNC(=N)N)C(=O)N1CCC[C@H]1C(=O)N[C@@H](CCCNC(=N)N)C(=O)N1CCC[C@H]1C(=O)N1CCC[C@H]1C(=O)N[C@@H](Cc1c[nH]cn1)C(=O)N1CCC[C@H]1C(=O)N[C@@H](CCCNC(=N)N)C(=O)N1CCC[C@H]1C(=O)N[C@H](C(=O)N[C@@H](CCCNC(=N)N)C(=O)N[C@H](C(=O)O)C(C)C)[C@@H](C)CC)[C@@H](C)CC` [Api805] (H-GNNRPIYIPRPRPPHPRPIRV-OH; N-terminus assumed), which Kd [2] is on record?
A: Its Kd is 557 nM.

Q: What about the Kd [5] of the same compound?
A: Its Kd is 515 nM.

Q: And the “uptake in E. coli Rosetta compared with E. coli BW25113” value ([3]; cf-labeled peptide 23 µmol/L, normalized fluorescence (OD600) after 180 min)?
A: Its value is “approximately threefold higher”.

Q: And the “uptake in E. coli Rosetta compared with Api88” value [3, 8]?
A: Its value is “twofold higher”.

Q: And the “uptake in E. coli Rosetta compared with Api137” value [3, 8]?
A: Its value is “fivefold higher”.

Q: And the “MIC in the parent E. coli BL21 strain” value [6]?
A: The value was 2 to 4 µg/mL.

Q: And the “MIC, 25% MHBII” value [6]?
A: Its value is 4 µg/mL (≈ 1.6 µM).

Q: And the “MIC, 33% TSB” value [6]?
A: The value was 2 µg/mL (≈ 0.799 µM).

Q: What about the “change of MIC after transformation of sbmA_A31G/G219T-harboring plasmid” value ([7]; compared with E. coli BW25113 ΔsbmA) of the same compound?
A: The value was “not altered”.
